# Test results as given in ChEMBL document CHEMBL4513161, “CO-ADD screening of MMV (CH) - Pandemic Response Box” (2021).
# Assays:
# [1] = tested on: HEK293; test: cells; assay type: functional, Homo sapiens, ATCC CRL1573; settings: Homo sapiens, ATCC CRL1573, HEK293; ASSAY_TEST Inhibition of Cell Viability; detection method Resazurin; Fluorescence (ex560/em590); MEDIA DMEM with 10% FBS; plate type 384well; TC; CORNING #3712; time 18 hr; read-out: CC50
# [2] = tested on: Candida albicans; test: microbe, parasite or virus in culture; settings: ATCC 90028, ASSAY_TEST Inhibition of Fungal Growth, detection method Absorption (OD530), plate type 384well, NBS, CORNING #3640
# Description: Antifungal activity against Candida albicans ATCC 90028 (CO-ADD:FG_001); MIC in YNB media using NBS plates, by OD630
# [3] = tested on: Klebsiella pneumoniae; test: microbe, parasite or virus in culture; settings: ATCC 700603, 18 h, ASSAY_TEST Inhibition of Bacterial Growth, detection method Absorption (OD600), MEDIA CAMHB, plate type 384well, NBS, CORNING #3640
# Description: Antibacterial activity against Klebsiella pneumoniae MDR ATCC 70063 (CO-ADD:GN_003); MIC in CAMBH media using NBS plates, by OD(600)
# [4] = tested on: Staphylococcus aureus; test: microbe, parasite or virus in culture; settings: ATCC 43300, 18 h, ASSAY_TEST Inhibition of Bacterial Growth, detection method Absorption (OD600), MEDIA CAMHB, plate type 384well, NBS, CORNING #3640
# Description: Antibacterial activity against Staphylococcus aureus MRSA ATCC 43300 (CO-ADD:GP_020); MIC in CAMBH media, using NBS plates, by OD(600)
# [5] = tested on: Escherichia coli; test: microbe, parasite or virus in culture; settings: ATCC 25922, 18 h, ASSAY_TEST Inhibition of Bacterial Growth, detection method Absorption (OD600), MEDIA CAMHB, plate type 384well, NBS, CORNING #3640
# Description: Antibacterial activity against Escherichia coli ATCC 25922 (CO-ADD:GN_001); MIC in CAMBH media using NBS plates, by OD(600)
# [6] = tested on: Pseudomonas aeruginosa; test: Antibacterial activity against Pseudomonas aeruginosa PAO397 [PAO1 d(mexAB-oprM) d(mexCD-oprJ) d(mexEF-oprN) d(mexJKL) d(mexXY) d(opmH)] (CO-ADD:GN_211); MIC in CAMBH media using NBS plates, by OD(600); assay type: functional; settings: ASSAY_TEST Inhibition of Bacterial Growth, detection method Absorption (OD600), MEDIA CAMHB, plate type 384well, CORNING #3640, time 18 hr
# [7] = tested on: Pseudomonas aeruginosa; test: microbe, parasite or virus in culture; settings: ATCC 27853, 18 h, ASSAY_TEST Inhibition of Bacterial Growth, detection method Absorption (OD600), MEDIA CAMHB, plate type 384well, NBS, CORNING #3640
# Description: Antibacterial activity against Pseudomonas aeruginosa ATCC 27853 (CO-ADD:GN_042); MIC in CAMBH media using NBS plates, by OD(600)
# [8] = tested on: Acinetobacter baumannii; test: microbe, parasite or virus in culture; settings: ATCC 19606, 18 h, ASSAY_TEST Inhibition of Bacterial Growth, detection method Absorption (OD600), MEDIA CAMHB, plate type 384well, NBS, CORNING #3640
# Description: Antibacterial activity against Acinetobacter baumannii ATCC 19606 (CO-ADD:GN_034); MIC in CAMBH media using NBS plates, by OD600
# [9] = tested on: Cryptococcus neoformans
# Description: Antifungal activity against Cryptococcus neoformans H99 ATCC 208821 (CO-ADD:FG_002); MIC in YNB media using NBS plates, by Resazurin OD(600-570)
Structure (SMILES),MIC [2] [µM],MIC [3] [µM],MIC [4] [µM],MIC [5] [µM],MIC [6] [µM],MIC [7] [µM],MIC [8] [µM],MIC [9] [µM],CC50 [1] [µM]
O=C(/C(=C/c1ccc(Cl)cc1Cl)n1ccnc1)c1ccc(Cl)cc1,10,> 20,20,> 20,> 20,> 20,> 20,20,5.19
CCCCCCCCC(CP(=O)(O)C(C)N)C(=O)O (stereo unspecified),> 20,> 20,> 20,> 20,> 20,> 20,> 20,> 20,> 20
O=C(O)CCNC(=O)c1ccccc1 [BETAMIPRON],> 20,> 20,> 20,> 20,> 20,> 20,> 20,> 20,> 20
CCCCCOc1ccc(/C=C2\Oc3c(ccc(O)c3O)C2=O)c(O)c1,> 20,> 20,> 20,> 20,> 20,> 20,> 20,> 20,> 20
COc1cc(NS(=O)(=O)c2ccc(C)cc2)c2ncccc2c1,> 20,> 20,> 20,> 20,> 20,> 20,> 20,> 20,5.41
C[N+]1(C)CCCC(OC(=O)C(O)(c2ccccc2)c2ccccc2)C1 (stereo unspecified) [MEPENZOLATE BROMIDE],> 20,> 20,> 20,> 20,> 20,> 20,> 20,> 20,> 20
CC[N+]1(C/C2=C/CCCCCC2)CCC(NC(=O)C2c3cc(Cl)ccc3Oc3ccc(Cl)cc32)CC1 (stereo unspecified),> 20,> 20,20,> 20,> 20,> 20,> 20,> 20,> 20
O=C(CC1Sc2ncnn2C1=O)Nc1ccc(Br)cc1 (stereo unspecified),20,> 20,> 20,> 20,> 20,> 20,> 20,10,> 20
O=c1cc(NCCCN[C@@H]2CCOc3c(Br)cc(Br)cc32)[nH]c2ccsc12 [CRS-3123],> 20,> 20,0.312,> 20,20,> 20,> 20,> 20,> 20
Cc1c(OCC(F)(F)F)ccnc1C[S+]([O-])c1nc2ccccc2[nH]1 (stereo unspecified) [LANSOPRAZOLE],> 20,> 20,> 20,> 20,> 20,> 20,> 20,> 20,> 20
CSC[C@H]1CN(Cc2c[nH]c3c(N)ncnc23)C[C@@H]1O,> 20,> 20,> 20,> 20,> 20,> 20,> 20,> 20,> 20
Oc1ccc(NCc2ccccc2OCc2ccccc2)cc1,> 20,> 20,> 20,> 20,> 20,> 20,> 20,> 20,> 20
Cc1c(F)cccc1NC(=O)Nc1ccc(Cl)c(S(=O)(=O)[C@H]2CCCNC2)c1O,> 20,> 20,> 20,> 20,> 20,> 20,> 20,> 20,12
CC(Cc1ccccc1)C(=O)Nc1ccc(Cl)cc1C(=O)O (stereo unspecified),> 20,> 20,> 20,> 20,> 20,> 20,> 20,> 20,> 20

# Now from value to molecule, other results behind:
MIC [2] [µM],MIC [3] [µM],MIC [4] [µM],MIC [5] [µM],MIC [6] [µM],MIC [7] [µM],MIC [8] [µM],MIC [9] [µM],Structure (SMILES),CC50 [1] [µM]
> 20,> 20,> 20,> 20,> 20,> 20,> 20,> 20,O=P(O)(O)C(CCCc1cccc(Oc2ccccc2)c1)S(=O)(=O)O (stereo unspecified),> 20
> 20,> 20,> 20,> 20,> 20,> 20,> 20,> 20,Cc1nc(N(C)C(=O)Cc2ccc(-c3ccccn3)cc2)sc1S(N)(=O)=O,> 20
> 20,> 20,> 20,> 20,> 20,> 20,> 20,> 20,CCCCN1C[C@H](O)[C@@H](O)[C@H](O)[C@H]1CO,> 20
> 20,> 20,> 20,> 20,> 20,> 20,> 20,> 20,CC(=N)N1CC[C@H](SC2=C(C(=O)O)N3C(=O)[C@@H]([C@@H](C)O)[C@H]3C2)C1,> 20
> 20,> 20,> 20,> 20,> 20,> 20,> 20,> 20,O=C(Nc1ccc(-c2ccccc2)cc1)C1=C(O)C(Cc2ccccc2)OC1=O (stereo unspecified),> 20
> 20,> 20,> 20,> 20,> 20,> 20,> 20,> 20,CCN(CC)CCCC(C)Nc1ccnc2cc(Cl)ccc12 (stereo unspecified) [CHLOROQUINE],> 20
> 20,> 20,0.625,2.5,5,> 20,> 20,> 20,O=C(Nc1cccc(C2=NCCN2)c1)c1ccc(-c2ccc(C(=O)Nc3cccc(C4=NCCN4)c3)cc2)cc1,> 20
> 20,> 20,> 20,> 20,> 20,> 20,> 20,> 20,NCC(=O)Nc1ccc(-n2nc(C(F)(F)F)cc2-c2ccc3c(ccc4ccccc43)c2)cc1 [AR-12],6.68
> 20,> 20,> 20,> 20,> 20,> 20,> 20,> 20,O=S(=O)(Nc1ccc(O)cc1)c1cccc2cccnc12,> 20
> 20,> 20,> 20,> 20,> 20,> 20,> 20,> 20,O=[N+]([O-])c1cn2c(n1)OC[C@@H](OCc1ccc(OC(F)(F)F)cc1)C2 [PRETOMANID],> 20
> 20,> 20,> 20,> 20,> 20,> 20,> 20,> 20,COc1cc2c(O)c3c(c(-c4ccc5c(c4)OCO5)c2cc1OC)C(=O)OC3 [DIPHYLLIN],> 20
> 20,> 20,> 20,> 20,> 20,> 20,> 20,> 20,CC(C)(C)OC(=O)NCc1ccc(C(=O)N[C@H]2CCOC2=O)cc1,> 20
> 20,> 20,> 20,> 20,> 20,> 20,> 20,> 20,O=c1[nH]c(=O)n(Cc2cccc(Oc3ccccc3)c2)cc1Nc1ccccc1,> 20
> 20,> 20,> 20,> 20,> 20,> 20,> 20,> 20,Nc1nc(C(F)(F)F)cc2c1[nH]c(=O)n2Cc1ccccc1,> 20
> 20,> 20,> 20,> 20,> 20,> 20,> 20,> 20,O=C(NCc1ccc2c3c(cccc13)C(=O)N2)c1cccs1,> 20
